Assay results taken from US8013006B2.

Each molecule was assayed on HCV replicon (assay: microbe, parasite or virus in culture). Conditions: Hepatitis C virus, 48 h, read-out: Replicon IC5Os.
Type: cell-based

SMILES	IC50 [nM]
CCCNC(=O)Nc1cccc(-c2c(C#N)c3ccc(OC)cc3n2CC)c1 [Compound 396]	< 500
CCn1c(-c2cccc(NC(=O)NC(C)C)c2)c(C#N)c2ccc(OC)cc21 [Compound 397]	< 500
CCCCNC(=O)Nc1cccc(-c2c(C#N)c3ccc(OC)cc3n2CC)c1 [Compound 398]	< 500
C=CCNC(=O)Nc1cccc(-c2c(C#N)c3ccc(OC)cc3n2CC)c1 [Compound 399]	< 500
CCNC(=O)Nc1cccc(-c2c(C#N)c3ccc(OC)cc3n2CC)c1 [Compound 401]	< 500
CCn1c(-c2cccc(NC(=O)Nc3ccc(C(C)C)cc3)c2)c(C#N)c2ccc(OC)cc21 [Compound 403]	500 to 2000
CCn1c(-c2cccc(NC(=O)Nc3ccccc3C)c2)c(C#N)c2ccc(OC)cc21 [Compound 405]	500 to 2000
CCn1c(-c2cccc(NC(=O)Nc3ccc(Oc4ccccc4)cc3)c2)c(C#N)c2ccc(OC)cc21 [Compound 406]	< 500
CCn1c(-c2ccc(NC(=O)Nc3ccc(C(C)C)cc3)cc2)c(C#N)c2ccc(OC)cc21 [Compound 445]	500 to 2000
CCOC(=O)Nc1cccc(-c2c(C#N)c3ccc(OCCCCl)cc3n2CC)c1 [Compound 447]	< 500
CCOC(=O)Nc1cccc(-c2c(C#N)c3ccc(OCCN4CCOCC4)cc3n2CC)c1 [Compound 492]	500 to 2000
CCOC(=O)Nc1cccc(-c2c(C#N)c3ccc(OCCCN4CCOCC4)cc3n2CC)c1 [Compound 493]	< 500

Same assay, conditions: Replicon IC50 values are determined by firefly luciferase signal; bicistronic replicon, 2 days; read-out: Replicon IC5Os

SMILES	IC50 [nM]
CCn1c(-c2ccc(C(=O)Nc3ccccc3)cc2)c(C#N)c2ccc(OC)cc21 [Compound 390]	> 2000
CCn1c(-c2ccc(C(=O)Nc3ccc(OC)c(OC)c3)cc2)c(C#N)c2ccc(OC)cc21 [Compound 392]	> 2000
CCn1c(-c2ccc(N)cc2)c(C#N)c2cc(Cl)ccc21 [Compound 393]	500 to 2000
CCn1c(-c2ccc(NS(C)(=O)=O)cc2)c(C#N)c2cc(Cl)ccc21 [Compound 394]	< 500
CCn1c(-c2cccc(NC(=O)NCCCl)c2)c(C#N)c2ccc(OC)cc21 [Compound 395]	500 to 2000
CCn1c(-c2cccc(NC(=O)NCCCCl)c2)c(C#N)c2ccc(OC)cc21 [Compound 400]	500 to 2000
CCn1c(-c2cccc(NC(=O)NCCc3ccccc3)c2)c(C#N)c2ccc(OC)cc21 [Compound 402]	500 to 2000
CCn1c(-c2cccc(NC(=O)Nc3ccc(C)cc3)c2)c(C#N)c2ccc(OC)cc21 [Compound 404]	> 2000
CCOC(=O)c1ccc(NC(=O)Nc2cccc(-c3c(C#N)c4ccc(OC)cc4n3CC)c2)cc1 [Compound 407]	500 to 2000
COc1ccc2c(C#N)c(-c3ccc(NS(C)(=O)=O)cc3)n(CC(C)C)c2c1 [Compound 409]	500 to 2000
CCOc1ccc2cc(-c3ccc(NS(C)(=O)=O)cc3)n(CC)c2c1 [Compound 410]	500 to 2000
CCOc1ccc2cc(-c3ccc(NS(=O)(=O)CC)cc3)n(CC)c2c1 [Compound 411]	500 to 2000
CCCn1c(-c2ccc(NS(C)(=O)=O)cc2)cc2ccc(OCC)cc21 [Compound 412]	> 2000
CCOc1ccc2c(C#N)c(-c3ccc(NS(=O)(=O)CC)cc3)n(C)c2c1 [Compound 414]	500 to 2000
CCCn1c(-c2ccc(NS(C)(=O)=O)cc2)c(C#N)c2ccc(OCC)cc21 [Compound 417]	< 500
CCOc1ccc2c(C#N)c(-c3ccc(NS(C)(=O)=O)cc3)n(C(C)C)c2c1 [Compound 419]	500 to 2000
CCn1c(-c2ccc(NC(=O)CCl)cc2)c(C#N)c2ccc(C(F)(F)F)cc21 [Compound 421]	> 2000
CCn1c(-c2ccc(NC(=O)c3ccccc3)cc2)c(C#N)c2ccc(C(F)(F)F)cc21 [Compound 423]	> 2000
CCn1c(-c2ccc(NC(=O)N3CCOCC3)cc2)c(C#N)c2ccc(C(F)(F)F)cc21 [Compound 424]	> 2000
CCn1c(-c2ccc(NC(=O)C3CC3)cc2)c(C#N)c2ccc(C(F)(F)F)cc21 [Compound 425]	500 to 2000
CCn1c(-c2ccc3ccccc3c2)c(C#N)c2ccc(OC)cc21 [Compound 426]	500 to 2000
CCn1c(-c2ccc3c(ccn3C)c2)c(C#N)c2ccc(OC)cc21 [Compound 427]	500 to 2000
CCn1c(-c2cccc(N)c2)c(C#N)c2cc(Cl)ccc21 [Compound 431]	> 2000
CCNC(=O)c1ccc(-c2c(C#N)c3ccccc3n2CC)cc1 [Compound 432]	> 2000

SMILES	IC50 [nM]
CCn1c(-c2ccc(C(=O)NC3CC3)cc2)c(C#N)c2ccccc21 [Compound 433]	> 2000
CCOC(=O)Nc1cccc(-c2c(C#N)c3cc(Cl)ccc3n2CC)c1 [Compound 434]	> 2000
CCn1c(-c2ccc(S(N)(=O)=O)cc2)c(C#N)c2cc(F)ccc21 [Compound 437]	> 2000
CCn1c(-c2ccc(S(=O)(=O)NC)cc2)c(C#N)c2cc(F)ccc21 [Compound 438]	> 2000
CCn1c(-c2ccc(NS(C)(=O)=O)cc2)c(C#N)c2cc(F)ccc21 [Compound 439]	500 to 2000
CCn1c(-c2ccc(NS(=O)(=O)CC)cc2)c(C#N)c2cc(F)ccc21 [Compound 440]	500 to 2000
CCOC(=O)Nc1cccc(-c2c(C#N)c3ccc(OCCCn4cncn4)cc3n2CC)c1 [Compound 441]	500 to 2000
CCn1c(-c2ccc(NC(=O)NCCCCl)cc2)c(C#N)c2ccc(OC)cc21 [Compound 443]	> 2000
CCn1c(-c2ccc(NC(=O)NCCc3ccccc3)cc2)c(C#N)c2ccc(OC)cc21 [Compound 444]	> 2000
CCn1c(-c2ccc(NC(=O)Nc3ccc(Oc4ccccc4)cc3)cc2)c(C#N)c2ccc(OC)cc21 [Compound 446]	> 2000
CCn1c(-c2ccc(NS(=O)(=O)c3cn(C)cn3)cc2)c(C#N)c2ccc(OC)cc21 [Compound 448]	> 2000
CCn1c(-c2ccc(NS(=O)(=O)c3ccc(N4CCOCC4)nc3)cc2)c(C#N)c2ccc(OC)cc21 [Compound 449]	> 2000
CCOC(=O)Nc1ccc(-c2c(C#N)c3ccc(C(F)(F)F)cc3n2CC)cc1 [Compound 450]	500 to 2000
CCn1c(-c2ccc(NS(=O)(=O)c3cccs3)cc2)c(C#N)c2ccc(OC)cc21 [Compound 451]	> 2000
CCn1c(-c2ccc(NS(=O)(=O)c3cccc4cccnc34)cc2)c(C#N)c2ccc(OC)cc21 [Compound 452]	> 2000
CCCOC(=O)Nc1ccc(-c2c(C#N)c3ccc(C(F)(F)F)cc3n2CC)cc1 [Compound 453]	500 to 2000
CCn1c(-c2ccc(NC(=O)OCc3ccccc3)cc2)c(C#N)c2ccc(C(F)(F)F)cc21 [Compound 457]	500 to 2000
CCn1c(-c2ccc(N)cc2)c(C#N)c2cc(-c3cccc(OC)c3)ccc21 [Compound 459]	500 to 2000
CCn1c(-c2cccc(N)c2)c(C#N)c2cc(-c3cccc(OC)c3)ccc21 [Compound 460]	500 to 2000
CCOc1ccc2cc(-c3ccc(NS(=O)(=O)CC)cc3)n(CC(C)C)c2c1 [Compound 465]	> 2000
CCOc1ccc2cc(-c3ccc(NS(C)(=O)=O)cc3)n(C3CCC3)c2c1 [Compound 466]	500 to 2000
CCOc1ccc2cc(-c3ccc(NS(=O)(=O)CC)cc3)n(C3CCC3)c2c1 [Compound 467]	500 to 2000
CCS(=O)(=O)Nc1ccc(-c2c(C#N)c3ccc(OC)cc3n2C(C)C)cc1 [Compound 468]	< 500
CCn1c(-c2ccc(N)cc2)c(C#N)c2ccc(OCCCl)cc21 [Compound 476]	500 to 2000

SMILES	IC50 [nM]
CCn1c(-c2ccc(NS(C)(=O)=O)cc2)c(C#N)c2ccc(OCCN3CCCCC3)cc21 [Compound 479]	> 2000
CCn1c(-c2ccc(NS(C)(=O)=O)cc2)c(C#N)c2ccc(OCCN3CCN(C)CC3)cc21 [Compound 481]	> 2000
CCn1c(-c2ccc(NS(C)(=O)=O)cc2)c(C#N)c2ccc(OCCN(C)CCOC)cc21 [Compound 482]	500 to 2000
CCn1c(-c2cccc(N)c2)c(C#N)c2cc(OC)ccc21 [Compound 483]	> 2000
CCn1c(-c2nc3ccccc3s2)c(C#N)c2ccc(OC)cc21 [Compound 484]	> 2000
CCOC(=O)Nc1cccc(-c2c(C#N)c3cc(-c4cccc(OC)c4)ccc3n2CC)c1 [Compound 485]	> 2000
CCCOC(=O)Nc1cccc(-c2c(C#N)c3cc(-c4cccc(OC)c4)ccc3n2CC)c1 [Compound 486]	500 to 2000
CCn1c(-c2ccc(NS(C)(=O)=O)cc2)c(C#N)c2cc(-c3cccc(OC)c3)ccc21 [Compound 487]	500 to 2000
CCn1c(-c2ccc(NS(=O)(=O)CC)cc2)c(C#N)c2cc(-c3cccc(OC)c3)ccc21 [Compound 488]	< 500
CCn1c(-c2cccc(NC(=O)OCC3CCCC3)c2)c(C#N)c2ccc(OC)cc21 [Compound 489]	500 to 2000
CCn1c(-c2cccc(NC(=O)OC3CCCC3)c2)c(C#N)c2ccc(OC)cc21 [Compound 490]	500 to 2000
CCOC(=O)Nc1cccc(-c2c(C#N)c3ccc(OCCn4cncn4)cc3n2CC)c1 [Compound 491]	> 2000
CCOC(=O)Nc1cccc(-c2[nH]c3cc(OC)ccc3c2C#N)c1 [Compound 494]	> 2000
CCn1c(-c2ccc(NS(C)(=O)=O)cc2)c(C#N)c2ccc(OCCn3ccnc3)cc21 [Compound 496]	500 to 2000
CCn1c(-c2ccc(NS(C)(=O)=O)cc2)c(C#N)c2ccc(OCCn3cncn3)cc21 [Compound 497]	> 2000
CCn1c(-c2cccc(NC(=O)OCc3ccc(C(C)C)cc3)c2)c(C#N)c2ccc(OC)cc21 [Compound 500]	> 2000
CCn1c(-c2cccc(NC(=O)OC3CCOC3)c2)c(C#N)c2ccc(OC)cc21 (stereo not shown) [Compound 502]	> 2000
CCn1c(-c2cccc(NC(=O)O[C@@H]3CCOC3)c2)c(C#N)c2ccc(OC)cc21 [Compound 503]	> 2000
CCOC(=O)Nc1cccc(-c2c(C#N)c3ccc(OCCCl)cc3n2CC)c1 [Compound 504]	> 2000
CCn1c(-c2cccc(NS(=O)(=O)CC)c2)c(C#N)c2cc(OC)ccc21 [Compound 505]	> 2000
CCOC(=O)Nc1cccc(-c2c(C#N)c3cc(OC)ccc3n2CC)c1 [Compound 506]	> 2000
CCn1c(-c2cccc(NC(=O)OC(C)C)c2)c(C#N)c2cc(OC)ccc21 [Compound 507]	> 2000
